Source: the supplement of paper PMC10307832

Columns and labels:
Experiment in all cases: relative viability (nuclei count vs DMSO), 5 days (fraction); higher = more cells survive
Metformin + Luminespib = compound: CN(C)C(=N)NC(=N)N [Metformin] + CCNC(=O)c1noc(-c2cc(C(C)C)c(O)cc2O)c1-c1ccc(CN2CCOCC2)cc1 [Luminespib] (partner 0.01 µM)
Outline: (§1)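 Relative viability was taken as the ratio of nuclei in treated wells to nuclei in vehicle wells. Lung cancer cell lines in 1536-well plates received compounds by pin tool one day after seeding, either one drug alone or a fixed anchor-drug dose plus five library-drug doses (not always all listed) in √10 steps. Nuclei were counted on 4× images after 5 days of treatment, and values are medians of duplicate plates.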

Metformin + Olaparib = compound: CN(C)C(=N)NC(=N)N [Metformin] + O=C(c1cc(Cc2n[nH]c(=O)c3ccccc23)ccc1F)N1CCN(C(=O)C2CC2)CC1 [Olaparib] (partner 8 µM)
Outline: as §1

Apatinib + Pictilisib = compound: N#CC1(c2ccc(NC(=O)c3cccnc3NCc3ccncc3)cc2)CCCC1 [Apatinib] + CS(=O)(=O)N1CCN(Cc2cc3nc(-c4cccc5[nH]ncc45)nc(N4CCOCC4)c3s2)CC1 [Pictilisib] (partner 1 µM)
Outline: as §1

Apatinib + AZD7762 = compound: N#CC1(c2ccc(NC(=O)c3cccnc3NCc3ccncc3)cc2)CCCC1 [Apatinib] + NC(=O)Nc1cc(-c2cccc(F)c2)sc1C(=O)N[C@H]1CCCNC1 [AZD7762] (partner 0.2 µM)
Outline: as §1

Cell Line | relative viability (Metformin + Luminespib; first compound 10 µM) | relative viability (Metformin + Luminespib; first compound 31.62 µM) | relative viability (Metformin + Luminespib; first compound 100 µM) | relative viability (Metformin + Luminespib; first compound 316.23 µM) | relative viability (Metformin + Luminespib; first compound 1000 µM) | relative viability (Metformin + Olaparib; first compound 10 µM) | relative viability (Metformin + Olaparib; first compound 31.62 µM) | relative viability (Metformin + Olaparib; first compound 100 µM) | relative viability (Metformin + Olaparib; first compound 316.23 µM) | relative viability (Metformin + Olaparib; first compound 1000 µM) | relative viability (Apatinib + Pictilisib; first compound 0.08 µM) | relative viability (Apatinib + Pictilisib; first compound 0.253 µM) | relative viability (Apatinib + Pictilisib; first compound 0.8 µM) | relative viability (Apatinib + Pictilisib; first compound 2.53 µM) | relative viability (Apatinib + Pictilisib; first compound 8 µM) | relative viability (Apatinib + AZD7762; first compound 0.08 µM) | relative viability (Apatinib + AZD7762; first compound 0.253 µM) | relative viability (Apatinib + AZD7762; first compound 0.8 µM) | relative viability (Apatinib + AZD7762; first compound 2.53 µM) | relative viability (Apatinib + AZD7762; first compound 8 µM)
NCI-H2126 | 0.647 | 0.956 | 0.803 | 0.571 | 0.496 | 0.767 | 0.88 | 0.911 | 0.833 | 0.856 | 0.52 | 0.398 | 0.473 | 0.505 | 0.479 | 1.02 | 0.924 | 0.9 | 0.973 | 0.933
CAL-12T | 0.253 | 0.775 | 0.447 | 0.699 | 0.417 | 0.612 | 0.661 | 0.61 | 0.611 | 0.744 | 0.304 | 0.352 | 0.393 | 0.484 | 0.353 | 0.618 | 0.53 | 0.603 | 0.51 | 0.468
NCI-H358 | 0.575 | 0.677 | 0.555 | 0.211 | 0.364 | 0.394 | 0.537 | 0.569 | 0.412 | 0.424 | 0.282 | 0.241 | 0.283 | 0.298 | 0.301 | 0.548 | 0.573 | 0.475 | 0.45 | 0.343
HCC-44 | 1.19 | 1.07 | 1.03 | 0.926 | 0.748 | – | 0.893 | 0.822 | 0.947 | 0.929 | 0.639 | 0.686 | 0.584 | 0.548 | 0.659 | 1.03 | 1.01 | 0.983 | 0.96 | 0.947
EKVX | 0.872 | 0.948 | 0.809 | – | 0.836 | – | 0.729 | 0.769 | 0.71 | 0.683 | 0.454 | 0.394 | 0.435 | 0.341 | 0.401 | 0.641 | 0.572 | 0.656 | 0.593 | 0.574
NCI-H1734 | 0.145 | 0.2 | 0.206 | 0.181 | 0.19 | 0.473 | 0.636 | 0.584 | 0.501 | 0.616 | 0.478 | 0.491 | 0.466 | 0.469 | 0.416 | 0.597 | 0.594 | 0.548 | 0.439 | 0.389
NCI-H1395 | 0.706 | 0.697 | 0.826 | 0.834 | 0.773 | 0.386 | 0.428 | 0.455 | 0.42 | 0.417 | 0.594 | 0.552 | 0.64 | 0.524 | 0.555 | 0.438 | 0.425 | 0.407 | 0.361 | 0.373
SW 900 | 0.152 | 0.177 | 0.179 | 0.192 | 0.214 | 0.853 | 0.945 | – | 0.892 | 0.917 | – | – | – | – | – | 0.656 | 0.587 | 0.563 | 0.374 | 0.401
NCI-H1975 | 0.156 | 0.122 | 0.363 | 0.335 | 0.336 | 0.653 | 0.931 | 0.874 | 0.849 | 0.955 | 0.305 | 0.335 | 0.304 | 0.28 | 0.322 | – | 0.754 | 0.71 | 0.514 | 0.655
NCI-H1792 | 0.599 | 0.57 | 0.789 | 0.418 | 0.485 | 0.463 | 0.39 | 0.498 | 0.358 | 0.402 | 0.309 | 0.278 | 0.334 | 0.191 | 0.243 | 0.881 | 0.68 | 0.528 | 0.508 | 0.211
NCI-H596 | 0.98 | 1.18 | 1.08 | 1.02 | 1.06 | 0.817 | 0.795 | 0.78 | 0.74 | 0.734 | 0.419 | 0.402 | 0.353 | 0.32 | 0.383 | 1.09 | 1.04 | 0.863 | 0.944 | 0.901
NCI-H1944 | 0.815 | 0.902 | 0.895 | 0.725 | 0.804 | 0.385 | 0.381 | 0.479 | 0.397 | 0.471 | 0.344 | 0.345 | 0.306 | 0.282 | 0.303 | 0.498 | 0.564 | 0.477 | 0.316 | 0.285
HCC-827 | – | 0.843 | 0.843 | 0.524 | 0.736 | 0.487 | 0.366 | 0.484 | 0.415 | 0.424 | 1.04 | 0.867 | 0.806 | 0.777 | 1.01 | 0.166 | 0.213 | 0.165 | 0.141 | 0.158
NCI-H441 | – | 0.241 | 0.336 | 0.28 | 0.373 | – | 0.575 | 0.387 | 0.356 | 0.374 | 0.583 | 0.566 | 0.51 | 0.408 | 0.32 | 1 | 1.16 | 1.05 | 1.08 | 1.06
LCLC-103H | 0.934 | 1.18 | 1.06 | 0.961 | 1.04 | 0.727 | 0.713 | 0.76 | 0.737 | 0.777 | 0.651 | 0.639 | 0.554 | 0.545 | 0.546 | 0.801 | 0.741 | 0.858 | 0.7 | 0.75
HARA | – | 0.897 | 0.895 | 0.775 | 0.776 | 0.989 | 0.81 | 0.701 | 0.762 | 1.01 | 0.447 | 0.491 | 0.494 | 0.435 | 0.307 | 0.344 | 0.38 | 0.184 | – | 0.128
201T | – | 1.15 | 1.1 | 1.06 | 1.03 | – | 0.802 | 0.815 | 0.775 | 0.822 | 0.748 | 0.643 | 0.662 | 0.604 | 0.663 | 0.691 | 0.701 | 0.565 | 0.5 | 0.471
